Converted amounts (≈) assume the structure as drawn. Where two headings read alike, the source gives them in different places. Values belong to the compound of their own block, whether it stands above or below them.
Tests used:
[1] = biological target: Src (Homo sapiens, UniProt P12931); assay: Src tyrosine kinase inhibition; type: biochemical
[2] = test system: HepG2; assay: HepG2 growth inhibition; type: cell-based; conditions: Homo sapiens, HepG2, read-out: human cells, GI50 HepG2
[3] = test system: CRL-8155; assay: CRL-8155 growth inhibition; type: cell-based; conditions: Homo sapiens, CRL8155, read-out: human cells, GI50 CRL-8155
[4] = biological target: hERG (Homo sapiens, UniProt Q12809)
[5] = phosphate-buffered saline, pH 6.5
[6] = physchem; conditions: phosphate-buffered saline, pH 6.5, Solubility
[7] = in vitro; conditions: mouse

Sequence of Src (P12931 whole entry, species assumed): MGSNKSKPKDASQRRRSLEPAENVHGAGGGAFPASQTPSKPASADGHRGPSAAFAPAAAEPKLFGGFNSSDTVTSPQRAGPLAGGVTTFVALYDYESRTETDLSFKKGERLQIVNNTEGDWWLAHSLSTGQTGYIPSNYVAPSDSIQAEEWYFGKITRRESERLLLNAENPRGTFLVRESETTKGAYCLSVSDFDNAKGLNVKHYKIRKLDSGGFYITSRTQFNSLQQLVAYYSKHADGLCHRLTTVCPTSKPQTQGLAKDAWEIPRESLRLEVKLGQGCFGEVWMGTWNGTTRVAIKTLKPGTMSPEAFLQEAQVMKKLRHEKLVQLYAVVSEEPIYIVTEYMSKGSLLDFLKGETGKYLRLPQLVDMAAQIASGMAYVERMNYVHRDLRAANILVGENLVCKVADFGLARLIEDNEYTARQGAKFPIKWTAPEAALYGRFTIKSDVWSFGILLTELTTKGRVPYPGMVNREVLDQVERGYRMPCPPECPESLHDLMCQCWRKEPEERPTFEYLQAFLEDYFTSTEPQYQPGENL
Sequence of hERG (Q12809 whole entry): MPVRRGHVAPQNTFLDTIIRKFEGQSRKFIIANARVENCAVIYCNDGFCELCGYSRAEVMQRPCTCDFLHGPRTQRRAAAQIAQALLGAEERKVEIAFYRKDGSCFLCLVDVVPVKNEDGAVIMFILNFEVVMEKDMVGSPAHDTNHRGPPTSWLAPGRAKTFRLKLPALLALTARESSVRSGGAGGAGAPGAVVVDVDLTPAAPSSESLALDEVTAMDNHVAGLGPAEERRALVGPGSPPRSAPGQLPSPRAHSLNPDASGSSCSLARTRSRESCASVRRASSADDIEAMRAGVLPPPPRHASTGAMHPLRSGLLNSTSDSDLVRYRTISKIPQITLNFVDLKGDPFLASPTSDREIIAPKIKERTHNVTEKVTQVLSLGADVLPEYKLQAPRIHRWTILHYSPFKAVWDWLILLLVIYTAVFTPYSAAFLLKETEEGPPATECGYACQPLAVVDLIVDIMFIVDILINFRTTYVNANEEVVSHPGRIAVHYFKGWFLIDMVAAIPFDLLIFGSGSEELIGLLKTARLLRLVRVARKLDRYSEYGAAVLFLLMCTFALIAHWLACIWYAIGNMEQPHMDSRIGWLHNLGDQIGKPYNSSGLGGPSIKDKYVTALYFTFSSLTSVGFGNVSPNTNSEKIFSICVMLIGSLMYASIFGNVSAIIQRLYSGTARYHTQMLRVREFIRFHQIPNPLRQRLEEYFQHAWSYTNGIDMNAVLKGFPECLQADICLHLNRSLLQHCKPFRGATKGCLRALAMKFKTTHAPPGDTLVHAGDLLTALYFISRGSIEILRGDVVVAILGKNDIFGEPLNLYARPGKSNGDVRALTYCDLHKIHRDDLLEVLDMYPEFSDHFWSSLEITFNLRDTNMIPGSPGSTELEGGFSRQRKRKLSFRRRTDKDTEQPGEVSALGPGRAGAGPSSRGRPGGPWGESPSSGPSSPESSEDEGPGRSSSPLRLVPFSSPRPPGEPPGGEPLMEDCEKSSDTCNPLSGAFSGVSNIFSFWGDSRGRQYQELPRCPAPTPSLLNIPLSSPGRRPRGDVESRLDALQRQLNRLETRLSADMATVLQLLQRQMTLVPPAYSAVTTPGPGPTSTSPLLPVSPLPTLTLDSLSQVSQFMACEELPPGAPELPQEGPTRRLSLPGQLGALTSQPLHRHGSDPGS

IC50 [1]: > 10 µM
SMILES: CCOc1ccc2cc(-c3nn(CC4CCN(C)CC4)c4ncnc(N)c34)ccc2n1 [Compound 17, 3-(2-Ethoxyquinolin-6-yl)-1-((1-methylpiperidin-4-yl)methyl)-1H-pyrazolo[3,4-d]pyrimidin-4-amine]
lower activity against hERG than 1 [4]: 25 fold

IC50 [1]: > 10 µM | GI50 [2]: > 10 µM
SMILES: CN1CCC(Cn2nc(-c3ccc4nc(OC5CC5)ccc4c3)c3c(N)ncnc32)CC1 [Compound 19, 3-(2-Cyclopropoxyquinolin-6-yl)-1-((1-methylpiperidin-4-yl)methyl)-1H-pyrazolo[3,4-d]pyrimidin-4-amine]

IC50 [1]: > 10 µM | GI50 [2]: > 10 µM
SMILES: CN(C)CC(C)(C)Cn1nc(-c2ccc3nc(OC4CC4)ccc3c2)c2c(N)ncnc21 [Compound 20, 3-(2-Cyclopropoxyquinolin-6-yl)-1-(3-(dimethylamino)-2,2-dimethylpropyl)-1H-pyrazolo[3,4-d]pyrimidin-4-amine]
GI50 [3]: > 10 µM

IC50 [1]: > 10 µM | GI50 [2]: > 10 µM
SMILES: CCOc1ccc2cc(-c3nn(CC(C)C)c4ncnc(N)c34)ccc2c1 [Compound 21, 3-(6-Ethoxynaphthalen-2-yl)-1-isobutyl-1H-pyrazolo[3,4-d]pyrimidin-4-amine]
GI50 [3]: > 10 µM

IC50 [1]: > 10 µM | GI50 [2]: > 10 µM
SMILES: CC(C)Cn1nc(-c2ccc3nc(OC4CC4)ccc3c2)c2c(N)ncnc21 [Compound 23, 3-(2-Cyclopropoxyquinolin-6-yl)-1-isobutyl-1H-pyrazolo[3,4-d]pyrimidin-4-amine]
GI50 [3]: > 10 µM

IC50 [1]: > 10 µM | GI50 [2]: > 10 µM
SMILES: CC1(Cn2nc(-c3ccc4cc(OC5CC5)ccc4c3)c3c(N)ncnc32)COC1 [Compound 24, 3-(6-Cyclopropoxynaphthalen-2-yl)-1-((3-methyloxetan-3-yl)methyl)-1H-pyrazolo[3,4-d]pyrimidin-4-amine]
GI50 [3]: > 10 µM

IC50 [1]: > 10 µM | GI50 [2]: > 10 µM
SMILES: CC1(Cn2nc(-c3ccc4nc(OC5CC5)ccc4c3)c3c(N)ncnc32)COC1 [Compound 25, 3-(2-Cyclopropoxyquinolin-6-yl)-1-((3-methyloxetan-3-yl)methyl)-1H-pyrazolo[3,4-d]pyrimidin-4-amine]
GI50 [3]: > 10 µM

IC50 [1]: > 10 µM | GI50 [2]: > 10 µM
SMILES: CCOc1ccc2cc(-c3nn(CC4CCOCC4)c4ncnc(N)c34)ccc2c1 [Compound 26]
GI50 [3]: > 10 µM

IC50 [1]: > 10 µM | GI50 [2]: > 10 µM
SMILES: CCOc1ccc2cc(-c3nn(CC4CCOCC4)c4ncnc(N)c34)ccc2n1 [Compound 27]
GI50 [3]: > 10 µM

GI50 [2]: > 10 µM
SMILES: Nc1ncnc2c1c(-c1ccc3cc(OC4CC4)ccc3c1)nn2CC1CCOCC1 [Compound 28, 3-(6-Cyclopropoxynaphthalen-2-yl)-1-((tetrahydro-2H-pyran-4-yl)methyl)-1H-pyrazolo[3,4-d]pyrimidin-4-amine]
GI50 [3]: > 10 µM

IC50 [1]: > 10 µM | GI50 [2]: > 10 µM | solubility [5]: 17 µM (≈ 7.08 µg/mL) | solubility [6]: < 20 µM
SMILES: Nc1ncnc2c1c(-c1ccc3nc(OC4CC4)ccc3c1)nn2CC1CCOCC1 [Compound 29, 3-(2-Cyclopropoxyquinolin-6-yl)-1-((tetrahydro-2H-pyran-4-yl)methyl)-1H-pyrazolo[3,4-d]pyrimidin-4-amine]
GI50 [3]: > 10 µM

IC50 [1]: > 10 µM | GI50 [2]: > 10 µM
SMILES: CCOc1ccc2cc(-c3nn(CC(C)(C)O)c4ncnc(N)c34)ccc2c1 [Compound 30, 1-(4-Amino-3-(6-ethoxynaphthalen-2-yl)-1H-pyrazolo[3,4-d]pyrimidin-1-yl)-2-methylpropan-2-ol]
GI50 [3]: > 10 µM

IC50 [1]: > 10 µM | GI50 [2]: > 10 µM
SMILES: CCOc1ccc2cc(-c3nn(CC(C)(C)O)c4ncnc(N)c34)ccc2n1 [Compound 31, 1-(4-Amino-3-(2-ethoxyquinolin-6-yl)-1H-pyrazolo[3,4-d]pyrimidin-1-yl)-2-methylpropan-2-ol]
GI50 [3]: > 10 µM

IC50 [1]: > 10 µM
SMILES: CC(C)(CO)Cn1nc(-c2ccc3nc(OCC(F)(F)F)ccc3c2)c2c(N)ncnc21 [Compound 36, 3-(4-Amino-3-(2-(2,2,2-trifluoroethoxy)quinolin-6-yl)-1H-pyrazolo[3,4-d]pyrimidin-1-yl)-2,2-dimethylpropan-1-ol]

IC50 [1]: > 10 µM | GI50 [2]: > 10 µM
SMILES: Nc1ncnc2c1c(-c1ccc3cc(OC4CC4)ccc3c1)nn2CC(O)(C(F)(F)F)C(F)(F)F [Compound 37, 2-((4-Amino-3-(6-cyclopropoxynaphthalen-2-yl)-1H-pyrazolo[3,4-d]pyrimidin-1-yl)methyl)-1,1,1,3,3,3-hexafluoropropan-2-ol]
GI50 [3]: > 10 µM

More lines, now with the values behind:

SMILES: CCOc1ccc2cc(-c3nn(CC4CNC4)c4ncnc(N)c34)ccc2c1 [Compound 5]
IC50 [1]: > 10 µM | GI50 [2]: > 10 µM | GI50 [3]: > 10 µM

SMILES: CCOc1ccc2cc(-c3nn(CC4CN(C)C4)c4ncnc(N)c34)ccc2c1 [Compound 6]
IC50 [1]: > 10 µM | GI50 [2]: > 10 µM | GI50 [3]: > 10 µM

SMILES: CCOc1ccc2cc(-c3nn(CC4CCN(C(C)C)CC4)c4ncnc(N)c34)ccc2c1 [Compound 7]
IC50 [1]: > 10 µM | GI50 [2]: > 10 µM | GI50 [3]: > 10 µM

SMILES: CCOc1ccc2cc(-c3nn(CC4CCN(C(C)=O)CC4)c4ncnc(N)c34)ccc2c1 [Compound 8]
GI50 [2]: > 10 µM | GI50 [3]: > 10 µM

SMILES: CCOc1ccc2cc(-c3nn(CC4CN(C(C)=O)C4)c4ncnc(N)c34)ccc2c1 [Compound 9]
GI50 [2]: > 10 µM | GI50 [3]: > 10 µM

SMILES: CN1CCC(Cn2nc(-c3ccc4cc(OCC5CC5)ccc4c3)c3c(N)ncnc32)CC1 [Compound 10, 3-(6-(Cyclopropylmethoxy)naphthalen-2-yl)-1-((1-methylpiperidin-4-yl)methyl)-1H-pyrazolo[3,4-d]pyrimidin-4-amine]
IC50 [1]: > 10 µM | GI50 [2]: > 10 µM | GI50 [3]: > 10 µM

SMILES: CN1CCC(Cn2nc(-c3ccc4cc(OC5CCC5)ccc4c3)c3c(N)ncnc32)CC1 [Compound 11, 3-(6-Cyclobutoxynaphthalen-2-yl)-1-((1-methylpiperidin-4-yl)methyl)-1H-pyrazolo[3,4-d]pyrimidin-4-amine]
IC50 [1]: > 10 µM | GI50 [2]: > 10 µM | GI50 [3]: > 10 µM

SMILES: CN1CCC(Cn2nc(-c3ccc4cc(OC5CC5)ccc4c3)c3c(N)ncnc32)CC1 [Compound 12, 3-(6-Cyclopropoxynaphthalen-2-yl)-1-((1-methylpiperidin-4-yl)methyl)-1H-pyrazolo[3,4-d]pyrimidin-4-amine]
IC50 [1]: > 10 µM | GI50 [3]: > 10 µM

SMILES: COCCOc1ccc2cc(-c3nn(CC4CCN(C)CC4)c4ncnc(N)c34)ccc2c1 [Compound 13, 3-(6-(2-Methoxyethoxy)naphthalen-2-yl)-1-((1-methylpiperidin-4-yl)methyl)-1H-pyrazolo[3,4-d]pyrimidin-4-amine]
IC50 [1]: > 10 µM | GI50 [2]: > 10 µM | GI50 [3]: > 10 µM

SMILES: CN1CCC(Cn2nc(-c3ccc4cc(OC5COC5)ccc4c3)c3c(N)ncnc32)CC1 [Compound 14, 1-((1-Methylpiperidin-4-yl)methyl)-3-(6-(oxetan-3-yloxy)naphthalen-2-yl)-1H-pyrazolo[3,4-d]pyrimidin-4-amine]
IC50 [1]: > 10 µM | GI50 [2]: > 10 µM | GI50 [3]: > 10 µM

SMILES: CN1CCC(Cn2nc(-c3ccc4cc(OCC(C)(C)O)ccc4c3)c3c(N)ncnc32)CC1 [Compound 16, 1-(6-(4-Amino-1-((1-methylpiperidin-4-yl)methyl)-1H-pyrazolo[3,4-d]pyrimidin-3-yl)naphthalen-2-yloxy)-2-methylpropan-2-ol]
IC50 [1]: > 10 µM | GI50 [2]: > 10 µM | GI50 [3]: > 10 µM

SMILES: CC(C)Cn1nc(-c2ccc3cc(OC4CC4)ccc3c2)c2c(N)ncnc21 [Compound 22, 3-(6-Cyclopropoxynaphthalen-2-yl)-1-isobutyl-1H-pyrazolo[3,4-d]pyrimidin-4-amine]
GI50 [3]: > 10 µM

SMILES: CC(C)(O)Cn1nc(-c2ccc3nc(OC4CC4)ccc3c2)c2c(N)ncnc21 [Compound 33, 1-(4-Amino-3-(2-cyclopropoxyquinolin-6-yl)-1H-pyrazolo[3,4-d]pyrimidin-1-yl)-2-methylpropan-2-ol]
GI50 [2]: > 10 µM | GI50 [3]: > 10 µM | EC50 [7]: 1.33 µM
